# Reference: PMC6982022 (International Journal of Molecular Sciences, 2019)
# Entries after “also recorded” stand apart in the source; their conditions may differ. Where two headings read alike, the source gives them in different places.
# Key:
# male CD rats [1] = experiment: Rat mating trial (fertility); type: in vivo; settings: for Conceptus, mean abnormal / Fertile/Mated / Conceptus, mean normal: 150 mg/kg/day oral days 0-34
# Experimental: Eighteen adult male CD rats were divided into three groups of six rats each. One group of six CD rats was treated with vehicle (distilled water containing 0.9% benzyl alcohol) via oral gavage (5 mL/kg/day), and the second group (6 rats) was treated with NB-DGJ (in distilled water containing 0.9% benzyl alcohol) via oral gavage at 150 mg/kg/day (in approximately 5 mL/kg of water) daily for 35 consecutive days. The third group (6 rats) was treated with 15 mg/kg NB-DNJ in distilled water containing 0.9% benzyl alcohol) via oral gavage (in approximately 5 mL/kg of water) daily for 35 consecutive days (Figure S5).
# (§1) Rats were weighed on day 0 (first day of dosing) and weekly thereafter. Dosages were adjusted based on the most recent body weight. Males were cohabited with untreated females (one male per two females) weekly at weeks 1 through 9 [38, 39]. Females were necropsied seven days after separation from males to determine the numbers of implantation sites. Individual male rats were bled from the tail vein at weeks 0, 1, 4, and 7 and serum was harvested by centrifugation. At week 11, the male rats were weighed, anesthetized, and exsanguinated. Sera were analyzed for inhibin B by ELISA (enzyme-linked immunosorbent assay), and rat follicle stimulating hormone (rFSH) and testosterone by radioimmunoassay. Testes, epididymides, ventral prostates, and seminal vesicles were excised and weighed. The left testis was homogenized, and spermatid head counts obtained.
# (§2) Statistical analysis using the Student’s t-test was performed on body weights, paired testes weights, ventral prostrate weights, seminal vesicle weights, paired epididymal weights, spermatid head counts, percent motile and normal epididymal sperm. We used analysis of variance (ANOVA) for serum inhibin B, rFSH, and testosterone, since these measurements were repeated throughout the study period. The effect of NB-DNJ at 15 mg/kg/day dose in the rat model was studied following the same protocol as that for NB-DGJ.
# male CD rats [2] = experiment: Serum hormone levels during mating trial; type: in vivo, rat; settings: 150 mg/kg/day; weeks 0, 1, 4 and 7; ANOVA
# Excerpt: as §1, §2
# [3] = Pharmacokinetic study, single oral bolus, plasma LC/MS/MS; type: in vivo, rat; settings: male CD rats, single oral 150 mg/kg; for Cmax: male, CD, plasma, po, 150 mg/kg
# Experimental: Four male CD rats (225–235 g) were purchased from Harlan (Indianapolis, IN, USA) with in-dwelling jugular cannulas and allowed to acclimate for 72 h in climate-regulated holding rooms in the University of Minnesota’s AAALAC-certified animal facilities. Standard rat chow and water were provided ad libitum throughout the study. NB-DGJ was formulated as described above to 33.75 mg/mL for in vivo administration. Rats were dosed orally by using a 15 G × 3” disposable gavage needle with a maximum volume of 5 mL/kg body weight. At various time points (0.083, 0.25, 0.5, 1, 2, 4, 8, 12, 24 and 48 h) following dosing, approximately 0.1 mL of blood was collected from each rat into BD Microtainer® with Lithium Heparin (Becton-Dickinson). Plasma was then isolated by allowing the samples to sit at room temperature for 30 min followed by microcentrifugation at 15,000× g for 5 min. Plasma samples were then stored at −70 °C until processing and analysis.
# Frozen plasma samples were thawed on ice and processed by adding 2 volumes of 100% acetonitrile (containing 750 ng/mL miglitol (N-hydroxyethyl-1-deoxynojirimycin) as an internal standard) and vortexed. The samples were then incubated on ice for 1 h and then microcentrifuged at 15,000× g for 5 min. The cleared supernatants were then transferred to 12 × 32 mm glass vials with inserts (Thermo Scientific™ National™ Inserts for Target™ LoVial™ Wide-Opening Vials).
# Processed samples were analyzed by LC/MS/MS using a previously published method. A standard curve consisting of normal rat plasma containing varying concentrations (1500, 500, 166.7, 55.6, 18.5, 6.2, 2.1, 0.7 and 0.22 ng/mL) of NB-DGJ was constructed and processed as described above. The analytical system was composed of a Quattro Ultima triple quadrupole MS/MS coupled with a Waters Acquity UPLC (Ultra Performance Liquid Chromatography). UPLC isocratic separation of analytes was performed using a Waters Atlantis Hilic 3 µm, 150 × 2.1 mm analytical column (Waters Corporation, Milford, MA, USA) maintained at 30 °C. The eluent was a mixture of acetonitrile/water/buffer (75/10/15, v/v/v) delivered at 0.25 mL/min. The buffer consisted of 100 mM ammonium acetate, pH 5. For the quantification of NB-DGJ and miglitol (internal standard), the transitions m/z 220 (Q1) → m/z 158 (Q3) and m/z 208 (Q1) → m/z 146 (Q3) were monitored, respectively. Data reduction was performed with QuanLynx software. PK analysis was performed by WinNonLin using a non-compartmental model.
# C57BL/6 mice = settings: cited from earlier work
compound,measurement,setting,value
"CCCCN1C[C@H](O)[C@@H](O)[C@@H](O)[C@H]1CO [NB-DGJ, N-butyldeoxygalactonojirimycin]",Treatment time after which fertility was blocked,male CD rats [1]; 150 mg/kg/day oral,35 days
same,"Conceptus, mean abnormal",male CD rats [1]; week of study 1,0.3
same,Fertile/Mated,male CD rats [1]; week of study 1,6/6
same,"Conceptus, mean normal","male CD rats [1]; week of study 1, both females per male",14
same,"Conceptus, mean abnormal",male CD rats [1]; week of study 2,0.1
same,"Conceptus, mean normal",male CD rats [1]; week of study 2,6
same,Fertile/Mated,male CD rats [1]; week of study 2,6/6
same,"Conceptus, mean abnormal",male CD rats [1]; week of study 3,0
same,"Conceptus, mean normal",male CD rats [1]; week of study 3,1
same,Fertile/Mated,male CD rats [1]; week of study 3,3/6
same,"Conceptus, mean abnormal",male CD rats [1]; week of study 4,0/0
same,"Conceptus, mean normal",male CD rats [1]; week of study 4,0/0
same,Fertile/Mated,male CD rats [1]; week of study 4,0/6
same,"Conceptus, mean abnormal",male CD rats [1]; week of study 5,2
same,Fertile/Mated,male CD rats [1]; week of study 5,6/6
same,"Conceptus, mean normal",male CD rats [1]; week of study 5 (after termination of dosing),10
same,"Conceptus, mean abnormal",male CD rats [1]; week of study 6,0.3
same,"Conceptus, mean normal",male CD rats [1]; week of study 6,13
same,Fertile/Mated,male CD rats [1]; week of study 6,6/6
same,"Conceptus, mean abnormal",male CD rats [1]; week of study 7,0.3
same,"Conceptus, mean normal",male CD rats [1]; week of study 7,13
same,Fertile/Mated,male CD rats [1]; week of study 7,6/6
same,"Conceptus, mean abnormal",male CD rats [1]; week of study 8,0.3
same,"Conceptus, mean normal",male CD rats [1]; week of study 8,14
same,Fertile/Mated,male CD rats [1]; week of study 8,6/6
same,"Conceptus, mean abnormal",male CD rats [1]; week of study 9,0.5
same,"Conceptus, mean normal",male CD rats [1]; week of study 9,13
same,Fertile/Mated,male CD rats [1]; week of study 9,6/6
same,Return of fertility after termination of dosing,male CD rats [1]; 150 mg/kg/day oral for 35 days,within one week
same,Reduction of numbers of normal conceptuses,"male CD rats [1]; 150 mg/kg/day oral, second week",50%
same,Treated rats infertile,"male CD rats [1]; 150 mg/kg/day oral, week four",100%
same,Treated rats rendered infertile,"male CD rats [1]; 150 mg/kg/day oral, week three",50%
same,Effect on fertility (in words),"male CD rats [1]; 150 mg/kg/day, daily single oral dose, 35 days",induced reversible infertility; also recorded: caused reversible infertility
same,Adverse effects in treated animals,"male CD rats [1]; daily dose of 150 mg/kg, 35 days",lack of adverse effects
same,Serum inhibin B versus control,male CD rats [2],No significant differences
same,Serum rFSH versus control,male CD rats [2],No significant differences
same,Serum testosterone versus control,male CD rats [2],No significant differences
same,t½_Lambda_z,"[3]; n = 4, plasma",6.5 h
same,Cmax,"[3]; rat, converted from ng/mL, read-out: Cmax (plasma level) in molar units",50 µM
same,Cmax,"[3]; rat, n = 4, plasma, read-out: Cmax",11000 ng/mL
same,tmax,"[3]; rat, n = 4, plasma",1.3 h
same,AUC(0-inf),"[3]; rat, n = 4, plasma, non-compartmental, read-out: AUCINF_Obs",55600 ng·h/mL
same,Effect on fertility (in words),"C57BL/6 mice; C57BL/6J male mice, 150 mg/kg",reversible infertility
same,Time for fertility to resume,C57BL/6 mice; C57BL/6J mice,approximately three weeks
same,"Testicular histology, spermiogenesis (in words)",C57BL/6 mice; dose equivalent to 1200 mg/kg of NB-DNJ,disrupts spermiogenesis
